Measured values as given in patent US10428080B2, “TBK/IKK inhibitor compounds and uses thereof” (Merck Patent GmbH, priority 2015, dated 2019).
Structures can show the parent of a compound that is named as a salt.

How the values were obtained:
TBK1 = biological target: T1, TBK1 (Homo sapiens, UniProt Q9UHD2); experiment: TBK Biochemical Assay; conditions: read-out: TBK1 IC50
T1 sequence (Q9UHD2 1-729): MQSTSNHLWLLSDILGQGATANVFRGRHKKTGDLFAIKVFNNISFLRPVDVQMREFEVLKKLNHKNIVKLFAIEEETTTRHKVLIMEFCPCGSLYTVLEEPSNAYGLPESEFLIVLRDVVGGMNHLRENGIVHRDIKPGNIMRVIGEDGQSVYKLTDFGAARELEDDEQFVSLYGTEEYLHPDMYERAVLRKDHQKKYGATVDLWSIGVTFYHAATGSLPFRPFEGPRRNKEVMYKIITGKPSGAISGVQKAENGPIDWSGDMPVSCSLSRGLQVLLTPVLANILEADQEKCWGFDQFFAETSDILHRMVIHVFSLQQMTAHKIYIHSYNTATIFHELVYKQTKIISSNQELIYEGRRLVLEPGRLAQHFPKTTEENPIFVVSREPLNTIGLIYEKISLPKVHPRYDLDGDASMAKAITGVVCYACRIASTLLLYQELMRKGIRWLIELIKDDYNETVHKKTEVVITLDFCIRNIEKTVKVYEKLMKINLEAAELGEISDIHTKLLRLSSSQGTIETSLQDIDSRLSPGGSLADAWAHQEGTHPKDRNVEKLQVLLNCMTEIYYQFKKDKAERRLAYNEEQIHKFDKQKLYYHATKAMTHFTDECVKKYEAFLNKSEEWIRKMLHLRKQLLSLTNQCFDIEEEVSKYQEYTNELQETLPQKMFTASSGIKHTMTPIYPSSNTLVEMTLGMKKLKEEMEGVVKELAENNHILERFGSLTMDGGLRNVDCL
Summary of the method: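 Caliper LabChip mobility-shift readout of substrate and product after 90 min of TBK1 reaction at 25° C and stop-buffer addition. Compounds tested in 1:4 serial dilution over 10 points from 30 uM final at 1% DMSO; staurosporine 10 uM final defines full inhibition.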

IKKε = biological target: T2, IKKε (Homo sapiens, UniProt Q14164); experiment: IKKe Biochemical Assay; conditions: read-out: IKKε IC50
T2 sequence (Q14164 1-716): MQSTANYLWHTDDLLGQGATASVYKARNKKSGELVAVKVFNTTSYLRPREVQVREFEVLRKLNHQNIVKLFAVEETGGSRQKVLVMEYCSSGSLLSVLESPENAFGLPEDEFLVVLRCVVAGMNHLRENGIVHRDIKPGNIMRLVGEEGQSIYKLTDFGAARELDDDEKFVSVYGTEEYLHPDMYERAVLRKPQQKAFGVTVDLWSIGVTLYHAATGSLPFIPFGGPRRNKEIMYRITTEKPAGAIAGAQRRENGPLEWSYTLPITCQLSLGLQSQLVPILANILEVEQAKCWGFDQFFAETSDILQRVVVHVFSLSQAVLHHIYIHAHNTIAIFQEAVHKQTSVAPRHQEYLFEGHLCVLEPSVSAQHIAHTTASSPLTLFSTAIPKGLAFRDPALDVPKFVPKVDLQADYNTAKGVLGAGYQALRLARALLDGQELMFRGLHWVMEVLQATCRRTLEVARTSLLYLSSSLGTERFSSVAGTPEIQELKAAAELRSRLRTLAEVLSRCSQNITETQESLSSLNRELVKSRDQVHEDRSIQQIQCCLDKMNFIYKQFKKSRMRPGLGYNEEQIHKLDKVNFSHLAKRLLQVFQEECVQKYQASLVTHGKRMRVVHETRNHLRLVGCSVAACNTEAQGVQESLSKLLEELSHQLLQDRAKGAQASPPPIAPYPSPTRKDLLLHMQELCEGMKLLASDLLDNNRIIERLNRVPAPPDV
Summary of the method: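 Activity was measured as mobility-shift separation of phosphorylated from unphosphorylated substrate on a LabChip EZ Reader. Compound was titrated from 30 uM final in 10 points, 1:4 steps, with 1% DMSO, and enzyme plus substrate reacted 90 min at 25° C before stop buffer. Control wells held 10 uM staurosporine.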

| IC50 (TBK1) [nM] | IC50 (IKKε) [nM] | SMILES |
| --- | --- | --- |
| > 5000 | 1000 to 5000 | CC1CC(Oc2ccc(-c3ccnc4cc(-c5ccc(C(=O)O)cc5)oc34)cc2C#N)CC(C)O1 (stereo not shown) [Compound 189] |
| > 5000 | 100 to 1000 | CN(C)C(=O)c1ccc(-c2cc3nccc(-c4ccc(OC5CCNCC5)c(C#N)c4)c3o2)nc1 [Compound 190] |
| > 5000 | 100 to 1000 | CCOC(=O)c1ccc(-c2cc3nccc(-c4ccc(N5CC[C@@H](F)C5)c(C#N)c4)c3o2)cc1 [Compound 191, 4-{7-[3-Cyano-4-((R)-3-fluoro-pyrrolidin-1-yl)-phenyl]-furo[3,2-b]pyridin-2-yl}-benzoic acid ethyl ester] |
| > 5000 | > 5000 | N#Cc1cc(-c2ccnc3cc(-c4ccc(C(=O)O)cc4)oc23)ccc1Oc1ccncc1 [Compound 192, 4-{7-[3-Cyano-4-(pyridin-4-yloxy)-phenyl]-furo[3,2-b]pyridin-2-yl}-benzoic acid] |
| 100 to 1000 | 100 to 1000 | CN(C)C(=O)c1ccc(-c2cc3nccc(-c4ccc(NC5CCOCC5)c(C#N)c4)c3o2)cc1 [Compound 194, 4-(7-(3-cyano-4-(tetrahydro-2H-pyran-4-ylamino)phenyl)furo[3,2-b]pyridin-2-yl)-N,N-dimethylbenzamide hydrochloride] |
| 1000 to 5000 | 100 to 1000 | CC1CC(Nc2ccc(-c3ccnc4cc(-c5ccc(C(=O)N(C)C)cc5)oc34)cc2C#N)CC(C)O1 (stereo not shown) [Compound 215, 4-(7-(3-cyano-4-(2,6-dimethyl-tetrahydro-2H-pyran-4-ylamino)phenyl)furo[3,2-b]pyridin-2-yl)-N,N-dimethylbenzamide hydrochloride] |
| > 5000 | > 5000 | CN(C)C(=O)c1ccc(-c2cc3nccc(-c4ccc(OC5CC(C)(C)NC(C)(C)C5)c(C#N)c4)c3o2)cc1 [Compound 216, 4-(7-(3-cyano-4-(2,2,6,6-tetramethylpiperidin-4-yloxy)phenyl)furo[3,2-b]pyridin-2-yl)-N,N-dimethylbenzamide] |
| 100 to 1000 | 100 to 1000 | CN(C)C(=O)c1ccc(-c2cc3nccc(-c4ccc(NC5C6COCC65)c(C#N)c4)c3o2)cc1 (stereo not shown) [Compound 217, 4-(7-(4-(3-oxa-bicyclo[3.1.0]hexan-6-ylamino)-3-cyanophenyl)furo[3,2-b]pyridin-2-yl)-N,N-dimethylbenzamide hydrochloride] |
| 1000 to 5000 | 1000 to 5000 | CN(C)C(=O)c1ccc(-c2cc3nccc(-c4ccc(NC5CC(C)(C)OC(C)(C)C5)c(C#N)c4)c3o2)cc1 [Compound 218, 4-(7-(3-cyano-4-(2,2,6,6-tetramethyl-tetrahydro-2H-pyran-4-ylamino)phenyl)furo[3,2-b]pyridin-2-yl)-N,N-dimethylbenzamide] |
| 100 to 1000 | 100 to 1000 | CN(C)C(=O)c1ccc(-c2cc3nccc(-c4ccc(CN5CCOCC5)c(C#N)c4)c3o2)cc1 [Compound 222, 4-(7-(3-cyano-4-(morpholinomethyl)phenyl)furo[3,2-b]pyridin-2-yl)-N,N-dimethylbenzamide] |
| < 100 | < 100 | CN(C)C(=O)c1ccc(-c2cc3nccc(-c4ccc(C(C)(C)N5CCOCC5)c(C#N)c4)c3o2)cc1 [Compound 223, 4-(7-(3-cyano-4-(2-morpholinopropan-2-yl)phenyl)furo[3,2-b]pyridin-2-yl)-N,N-dimethylbenzamide hydrochloride] |
| 100 to 1000 | < 100 | CN(C)C(=O)c1ccc(-c2cc3nccc(-c4cc(F)c(NC5CCOCC5)c(C#N)c4)c3o2)cc1 [Compound 224, 4-(7-(3-cyano-5-fluoro-4-(tetrahydro-2H-pyran-4-ylamino)phenyl)furo[3,2-b]pyridin-2-yl)-N,N-dimethylbenzamide hydrochloride] |
| 100 to 1000 | 100 to 1000 | CN(C)C(=O)c1ccc(-c2cc3nccc(-c4cc(F)c(N(C)C5CCOCC5)c(C#N)c4)c3o2)cc1 [Compound 225, 4-(7-(3-cyano-5-fluoro-4-(methyl(tetrahydro-2H-pyran-4-yl)amino)phenyl)furo[3,2-b]pyridin-2-yl)-N,N-dimethylbenzamide hydrochloride] |
| < 100 | < 100 | COc1cc(C(=O)N(C)C)ccc1-c1cc2nccc(-c3ccc(NC4CCOCC4)c(C#N)c3)c2o1 [Compound 226, 4-(7-(3-cyano-4-(tetrahydro-2H-pyran-4-ylamino)phenyl)furo[3,2-b]pyridin-2-yl)-3-methoxy-N,N-dimethylbenzamide] |
| < 100 | < 100 | COc1cc(C(=O)N(C)C)ccc1-c1cc2nccc(-c3ccc(N(C)C4CCOCC4)c(C#N)c3)c2o1 [Compound 227, 4-(7-(3-cyano-4-(methyl(tetrahydro-2H-pyran-4-yl)amino)phenyl)furo[3,2-b]pyridin-2-yl)-3-methoxy-N,N-dimethylbenzamide] |
| 100 to 1000 | < 100 | COc1cc(C(=O)N(C)C)ccc1-c1cc2nccc(-c3ccc(NC4CC(C)OC(C)C4)c(C#N)c3)c2o1 (stereo not shown) [Compound 228, 4-(7-(3-cyano-4-(2,6-dimethyl-tetrahydro-2H-pyran-4-ylamino)phenyl)furo[3,2-b]pyridin-2-yl)-3-methoxy-N,N-dimethylbenzamide] |
| 100 to 1000 | 100 to 1000 | COc1cc(C(=O)N(C)C)ccc1-c1cc2nccc(-c3ccc(OC4CC(C)(C)NC(C)(C)C4)c(C#N)c3)c2o1 [Compound 229, 4-(7-(3-cyano-4-(2,2,6,6-tetramethylpiperidin-4-yloxy)phenyl)furo[3,2-b]pyridin-2-yl)-3-methoxy-N,N-dimethylbenzamide] |
| < 100 | < 100 | COc1cc(C(=O)N(C)CCO)ccc1-c1cc2nccc(-c3ccc(NC4CCOCC4)c(C#N)c3)c2o1 [Compound 230, 4-(7-(3-cyano-4-(tetrahydro-2H-pyran-4-ylamino)phenyl)furo[3,2-b]pyridin-2-yl)-N-(2-hydroxyethyl)-3-methoxy-N-methylbenzamide] |
| < 100 | < 100 | COc1cc(C(=O)N(C)C)ccc1-c1cc2nccc(-c3ccc(O[C@H]4[C@H](C)COC[C@@H]4C)c(C#N)c3)c2o1 [Compound 232, 4-(7-(3-cyano-4-(3,5-dimethyl-tetrahydro-2H-pyran-4-yloxy)phenyl)furo[3,2-b]pyridin-2-yl)-3-methoxy-N,N-dimethylbenzamide] |
| < 100 | < 100 | COc1cc(C(=O)N(C)C)ccc1-c1cc2nccc(-c3ccc(O[C@@H]4[C@H](C)COC[C@@H]4C)c(C#N)c3)c2o1 [Compound 233, 4-(7-(3-cyano-4-(3,5-dimethyl-tetrahydro-2H-pyran-4-yloxy)phenyl)furo[3,2-b]pyridin-2-yl)-3-methoxy-N,N-dimethylbenzamide] |
| < 100 | < 100 | COc1cc(C(=O)N(C)C)ccc1-c1cc2nccc(-c3ccc(CN4CCOCC4)c(C#N)c3)c2o1 [Compound 234, 4-(7-(3-cyano-4-(morpholinomethyl)phenyl)furo[3,2-b]pyridin-2-yl)-3-methoxy-N,N-dimethylbenzamide] |
| 100 to 1000 | 100 to 1000 | COc1cc(C(=O)N(C)C)ccc1-c1cc2nccc(-c3ccc(C(C)(C)N4CCOCC4)c(C#N)c3)c2o1 [Compound 235, 4-(7-(3-cyano-4-(2-morpholinopropan-2-yl)phenyl)furo[3,2-b]pyridin-2-yl)-3-methoxy-N,N-dimethylbenzamide hydrochloride] |
| < 100 | < 100 | COc1cc(C(=O)N(C)C)ccc1-c1cc2nccc(-c3cc(F)c(NC4CCOCC4)c(C#N)c3)c2o1 [Compound 236, 4-(7-(3-cyano-5-fluoro-4-(tetrahydro-2H-pyran-4-ylamino)phenyl)furo[3,2-b]pyridin-2-yl)-3-methoxy-N,N-dimethylbenzamide] |
